Experimental data taken from patent publication US6207648A, “Methods of using cytochrome P450 reductase for the enhancement of P450-based anti-cancer gene therapy” (priority 1998, dated 2001).
“Also recorded” adds a separate entry of the source. Read-outs that look alike come from different tables or passages of the source.

What was measured:
[1] = test system: 9L tumors in female Fischer 344 rats; test: In vivo cytotoxicity / tumor excision assay, s.c. 9L tumors; parameters: species or system rat
Protocol: FIG. 9 is a graph depicting the results of an in vivo tumor excision assay, which quantitates the extent of CPA-induced tumor cell kill in rats in vivo for 9L tumors, compared to 9L tumors engineered to express P450 alone (CYP2B1^+) or P450 in combination with RED (CYP2B1^+ RED^+++).Female Fischer 344 rats were inoculated with parental 9L, CYP2B1^+, and CYP2B1^+ RED^+++ tumor cells by subcutaneous injection of 2×10^6 tumor cells/0.2 ml in the hindleg as described below in the "Materials and Methods" section of Example 1. At 2 weeks after tumor implantation, each animal received a single injection of CPA (50 or 100 mg/kg body weight) or saline as control. Twenty four hours later, tumors were excised, and single cell suspensions were prepared for assay of colony formation activity. Results are presented as mean survival fractions as compared to control groups, for 4 or 5 determinations; bars, standard error (SE).
In vivo cytotoxicity assay: Tumor cells were grown subcutaneously as solid tumors in female Fischer 344 rats (120-150g). Each rat was inoculated by subcutaneous injection of one tumor cell line at the right thigh and a second tumor cell line at the left thigh at 2×10^6 cells/site. Rats were randomized and divided into three groups. One group was injected with saline as a control. The other two groups were treated with CPA at 50 mg/kg or 100 mg/kg body weight given as a single intraperitoneal injection 2 weeks after tumor implantation. At 24 hours after CPA injection, the rats were sacrificed and soaked briefly in 75% ethanol. The tumors were excised, suspended in DMEM, and minced under sterile conditions. […] The single cell suspensions were counted and plated at densities of 200, 2×10^3 and 2×10^4 cells/well of a 6-well plate, in duplicate, to determine cell viability by a colony formation assay. […] Cells were grown for 7 days and colonies (>50 cells) were then stained with crystal violet and counted. Results are expressed as the surviving fractions SEM of cells from drug treated groups compared to untreated controls.

9L/pBabe bystander cells = test: Bystander cytotoxicity/co-culture with cell culture inserts; format: cell-based, rat; settings: for cytotoxicity at 670 µM: Rattus norvegicus, 96 h, 9L/2B6/reductase, 0.67 mM
Protocol: FIGS. 18A and 18B are graphs depicting the bystander cytotoxicity of 9L/2B6/reductase and 9L/2B6 cells. In FIG. 18A, bystander cytotoxicity of 9L/2B6/reductase cells is compared to that of 9L/2B6 cells. In both cases, 9L/pBabe served as the bystander cells. 9L/pBabe cells were plated in duplicate at 10^5 cells/well of a 6-well plate (lower chamber). 9L/2B6/reductase cells or 9L/2B6 cells were plated in 25 mm cell culture inserts (upper chamber) at concentrations ranging from 10^4 to 6×10^5 cells, corresponding to ratios of 0.1 to 6 relative to the bystander 9L/pBabe cells growing in the lower chamber, as shown on the x-axis. Cells were incubated in a total volume of 3 ml Dulbecco's minimal essential medium (DMEM), 10% FBS, containing 1 mM CPA, final CPA concentration.
The experimental design was the same as in FIG. 18A, except that the final drug concentration was 0.67 mM. Data shown for both panels correspond to the survival of 9L/pBabe bystander cells in the lower chamber.
Bystander cytotoxicity/co-culture experiments: 9L/pBabe cells were plated in duplicate at 10^5 cells/well in the lower chamber of a 6-well Falcon co-culture plate (30 mm diameter wells) (Falcon 3046). 9L/2B6/reductase cells were plated in 25 mm cell culture inserts (0.4 μm pore size; Falcon 3090), at dilutions ranging from 0. 1 to 6 times the number of 9L/pBabe cells plated in the lower chamber. […] Relative cell numbers were quantitated 4 days later by crystal violet staining.

[2] = test system: 9L/pBabe, 9L/2B6, 9L/hRED and 9L/2B6/hRED gliosarcoma cells; test: Cytotoxicity assay of 9L cells transduced with human RED and/or P450 2B6, normoxic or hypoxic (Example 3)
Protocol: Cells were seeded at 4000 cells/well in 48-well plates and treated with increasing concentrations of CPA for 4 days. Cell growth in comparison to drug-free controls was determined by crystal violet staining and is presented as mean±SD for n=3 replicates.
FIG. 21 is a graph depicting the cytotoxic effects of the bioreductive drug TPZ toward 9L/pBabe control cells and 9L cells transduced with retroviruses encoding human RED and/or P450 2B6 under normoxic culture conditions. Cells were seeded at 4000 cells/well in 48-well plates and treated with increasing concentrations of TPZ for 4 days. Cell growth in comparison to drug-free controls was determined by crystal violet staining and is presented as mean±SD for n=3 replicates.
FIG. 22 is a graph depicting the cytotoxicity of increasing concentrations of TPZ under hypoxic conditions (1% O2) toward 9L tumor cells transduced with retroviruses encoding P450 2B6 and/or human RED. 9L/pBabe cells served as controls. Cells were seeded at 4000 cells/well in 48-well plates and treated with increasing concentrations of TPZ for 4 days. Cell growth in comparison to drug-free controls was determined by crystal violet staining and is presented as mean±SD for n=3 replicates.
FIGS. 24A, 24B and 24C are graphs depicting the cytotoxic effects of TPZ (5 or 10 μM, as indicated) in combination with increasing concentrations of CPA under normoxic culture conditions (19.6% O2, 5% CO2). The data shown were obtained using 9L/2B6/hRED cells (FIG. 24A), 9L/hRED cells (FIG. 24B) and 9L/pBabe (control) cells (FIG. 24C). Data were compared to the cytotoxicity of increasing concentrations of CPA alone (i. e., in the absence of TPZ) measured using the same pools of tumor cells. Cells were seeded at 4000 cells/well in 48-well plates and then treated with the indicated drug concentrations for 4 days. Cell growth in comparison to drug-free controls (i.e., in the absence of CPA and TPZ) was determined by crystal violet staining and is presented as mean±SD for n=3 replicates.
FIGS. 25A, 25B and 25C are graphs depicting the cytotoxic effects of TPZ (0.5 or 1.5 μM, as indicated) in combination with increasing concentrations of CPA under hypoxic culture conditions (1% O2, 5% CO2). The data shown were obtained using 9L/2B6/hRED cells (FIG. 25A), 9L/hRED cells (FIG. 25B) and 9L/pBabe (control) cells (FIG. 25C). Data were compared to the cytotoxicity of increasing concentrations of CPA alone (i.e., in the absence of TPZ) measured using the same pools of tumor cells. Cells were seeded at 4000 cells/well in 48-well plates and then treated with the indicated drug concentrations for 4 days. Cell growth in comparison to drug-free controls (i.e., in the absence of CPA and TPZ) was determined by crystal violet staining and is presented as mean±SD for n=3 replicates.
Cytotoxicity assays: To evaluate the chemosensitivity of the P450- and P450/RED-expressing 9L tumor cells, cells were plated in triplicate at 4000 cells/well of a 48-well plate 18-24 hours prior to drug treatment. Cells were then treated with drugs (0 to 1 mM CPA or 0 to 50 μM TPZ, as indicated in each experiment) and placed in a tissue culture incubator maintained under hypoxic conditions (1% O2, 5% CO2, 94% N2) or under normoxic conditions (19.6% O2, 5% CO2, 75.4% N2) for a period of 4 days. 9L/pBabe cells, which were transduced with the empty retroviral plasmid pBabe-puro (see, Example 2), served as controls. Cells remaining after this time were quantitated using a crystal violet/alcohol-extraction assay, as described under Example 2. Data are presented as cell number relative to drug-free controls, mean±SD values for triplicate samples, unless indicated otherwise.

SMILES: O=P1(N(CCCl)CCCl)NCCCO1 (stereo not shown) [CPA, cyclophosphamide]
- killing of CYP2B1+ tumors compared to wild type 9L tumors ([1]; 100 mg/kg, 24 h): up to 10 fold
- additional tumor cell killing in CYP2B1+ RED+++ tumors ([1]; 24 h after CPA): approximately 10 fold
- overall increase in tumor cell kill in vivo over hepatic drug activation alone ([1]; CYP2B1 + RED): 50-100 fold
- bystander killing of 9L/pBabe cells by 9L/2B6/reductase vs 9L/2B6 cells (9L/pBabe bystander cells; 1 mM CPA, cell ratio for 50% bystander cytotoxicity): approximately 3 fold
- bystander cytotoxic effect on non-P450-expressing 9L cells (9L/pBabe bystander cells; 2B6 and RED-transduced tumor cells): strong cell contact-independent bystander cytotoxic effect; also recorded: striking bystander cytotoxic effect
- cytotoxicity at 670 µM (9L/pBabe bystander cells; P450:non-P450 ratio approximately 0.5-1, read-out: bystander toxicity toward non-P450 tumor cells): ~40%
- cytotoxicity at 670 µM (9L/pBabe bystander cells; cell ratio >3, read-out: bystander toxicity toward non-P450 cells): ≥ 80%
- effect of hypoxia on CPA cytotoxicity toward 9L/2B6/RED or 9L/2B6 cells ([2]; 1% O2): does not significantly alter the cytotoxicity
- CPA cytotoxicity on retroviral transduction of hRED ([2]; 9L/2B6/hRED vs 9L/2B6, normoxic): large increase in CPA cytotoxicity
- CPA cytotoxicity in 9L/hRED and 9L/pBabe cells ([2]; normoxic): No CPA cytotoxicity was observed
